How the values were obtained:
Assay type in all cases: in vivo
[1] = test system: Hordeum vulgare; assay: Seed germination and seedling shoot/root growth test in petridishes; conditions: control = 100%
Procedure: (§1) As noted above the activity of phyllocladane diterpenoids used in the practice of this invention was observed when these compounds were tested for their effects on seed germination, root and shoot growth of certain plant species and their antagonistic effect on plant growth retardants by the method described by Bagchi G. D. et al Phytochemistry, 45(6)1131-1133, 1997.
(§2) Plant growth promoting activity of calliterpenone, calliterpenone monoacetate, and calliterpenone di-acetate was examined at 0.1, 0.01 and 0.001 μM concentrations. The tests were conducted against seeds of two monocotyledonous (Hordeum vulgare and Triticum aestivum) and two dicotyledonous plants (Vigna radiata and Trigonella foenum-graecum). Control seeds were germinated in distilled water and all the observations were compared with […]. The root and shoot growth of all the plant species were affected by the phyllocladane diterpenoids, although the extent of effect varied considerably in the plant species with the chemicals and their concentrations. […] Details of the procedure adopted and results obtained are discussed in the various examples.
(§3) 100 ml stalk solutions of 0.1 μM concentration were prepared by dissolving required amounts of various test compounds (depending upon their molecular weights) in minimum amount of ethanol or acetone and adding distilled water. From this stalk solution, 0.01 μM and 0.001 μM concentrations were prepared. Calliterpenone and calliterpenone di acetate was dissolved in 2.0 ml absolute ethanol (Merc), while; calliterpenone monoacetate, isopropylideno calliterpenone and trihydroxy calliterpenone were dissolved in 2.0 ml spectral grade acetone (Ranbaxy). The respective control test solutions of distilled water of each concentration also contained equal amount of absolute ethanol or acetone. For an assay, 10 seeds were placed on Whatman filter paper (moistened with 5.0 ml of test solution in a 9.0 cm diameter petridish (in triplicate). The pteridishes were incubated for 9 days in a germinator, maintained at 25.0±1.0° C. with 90% humidity and 4 hr light/day. At the end of incubation, observations were recorded on the seedlings in terms of germination, shoot and root growth. The data on the length of shoot and root of seedlings and number of seeds germinated in different concentrations of compounds were compared with the control, which was taken as 100%. The data thus obtained were presented in Table-1.
(§4) Root growth of seedlings was measured in the similar way as shoot growth from the experiment as described in Example 1.
(§5) Effect of test compounds on germination was observed from the same experiment as described in Example 1.

[2] = test system: Trigonella foenum-graecum; assay: as above; conditions: for Percent (%) germination of seeds in relation to control on 9th day after sowing / Percent (%) root growth of seedlings in relation to control on 9th day after sowing / Percent (%) shoot growth of seedlings in relation to control on 9th day after sowing: Trigonella foenum graecum, control = 100%
Procedure: as §1, §2, §3, §4, §5

[3] = test system: Triticum aestivum; assay: as above; conditions: control = 100%
Procedure: as §1, §2, §3, §4, §5

[4] = test system: Vigna radiata; assay: as above; conditions: for Percent (%) germination of seeds in relation to control on 9th day after sowing / Percent (%) root growth of seedlings in relation to control on 9th day after sowing / Percent (%) shoot growth of seedlings in relation to control on 9th day after sowing: Vigna radiata, control = 100%
Procedure: as §1, §2, §3, §4, §5

[5] = test system: Hibiscus sabdariffa; assay: Seed germination and seedling growth, comparison with GA3 (Example 4)
Procedure: as §3
(§6) Effect of calliterpenone and its derivatives on seed germination and seedling growth in Hibiscus sabdariffa and Sesbania cannabina were measured in the similar way as these were measured in Example-1.

[6] = test system: Sesbania cannabina; assay: as above
Procedure: as §3, §6

C=C1C[C@]23C[C@@]1(O)CC[C@H]2[C@@]12C=C[C@H](O)[C@@](C)(C(=O)O1)[C@H]2[C@@H]3C(=O)O [GA3, Gibberellic acid, reference compound]
Percent (%) germination of seeds in relation to control on 9th day after sowing ([1]; 0.001 μM): 100%
Percent (%) root growth of seedlings in relation to control on 9th day after sowing ([1]; 0.001 μM): 132%
Percent (%) shoot growth of seedlings in relation to control on 9th day after sowing ([1]; 0.001 μM): 104%
Percent (%) germination of seeds in relation to control on 9th day after sowing ([1]; 0.01 μM): 100%
Percent (%) root growth of seedlings in relation to control on 9th day after sowing ([1]; 0.01 μM): 115%
Percent (%) shoot growth of seedlings in relation to control on 9th day after sowing ([1]; 0.01 μM): 91%
Percent (%) germination of seeds in relation to control on 9th day after sowing ([1]; 0.1 μM): 100%
Percent (%) root growth of seedlings in relation to control on 9th day after sowing ([1]; 0.1 μM): 70%
Percent (%) shoot growth of seedlings in relation to control on 9th day after sowing ([1]; 0.1 μM): 55%
Percent (%) germination of seeds in relation to control on 9th day after sowing ([2]; 0.001 μM): 100%
Percent (%) root growth of seedlings in relation to control on 9th day after sowing ([2]; 0.001 μM): 123%
Percent (%) shoot growth of seedlings in relation to control on 9th day after sowing ([2]; 0.001 μM): 116%
Percent (%) germination of seeds in relation to control on 9th day after sowing ([2]; 0.01 μM): 100%
Percent (%) root growth of seedlings in relation to control on 9th day after sowing ([2]; 0.01 μM): 45%
Percent (%) shoot growth of seedlings in relation to control on 9th day after sowing ([2]; 0.01 μM): 112%
Percent (%) germination of seeds in relation to control on 9th day after sowing ([2]; 0.1 μM): 100%
Percent (%) root growth of seedlings in relation to control on 9th day after sowing ([2]; 0.1 μM): 45%
Percent (%) shoot growth of seedlings in relation to control on 9th day after sowing ([2]; 0.1 μM): 93%
Seed germination as compared to 100% in control ([2]; Trigonella foenum-graceum, concentration not specified): 100%
Percent (%) germination of seeds in relation to control on 9th day after sowing ([3]; 0.001 μM): 100%
Percent (%) root growth of seedlings in relation to control on 9th day after sowing ([3]; 0.001 μM): 131%
Percent (%) shoot growth of seedlings in relation to control on 9th day after sowing ([3]; 0.001 μM): 120%
Percent (%) germination of seeds in relation to control on 9th day after sowing ([3]; 0.01 μM): 100%
Percent (%) root growth of seedlings in relation to control on 9th day after sowing ([3]; 0.01 μM): 116%
Percent (%) shoot growth of seedlings in relation to control on 9th day after sowing ([3]; 0.01 μM): 115%
Percent (%) germination of seeds in relation to control on 9th day after sowing ([3]; 0.1 μM): 100%
Percent (%) root growth of seedlings in relation to control on 9th day after sowing ([3]; 0.1 μM): 62%
Percent (%) shoot growth of seedlings in relation to control on 9th day after sowing ([3]; 0.1 μM): 113%
Seed germination as compared to 100% in control ([4]; V.radiata, concentration not specified): 200%
Percent (%) germination of seeds in relation to control on 9th day after sowing ([4]; 0.001 μM): 200%
Percent (%) root growth of seedlings in relation to control on 9th day after sowing ([4]; 0.001 μM): 102%
Percent (%) shoot growth of seedlings in relation to control on 9th day after sowing ([4]; 0.001 μM): 126%
Percent (%) germination of seeds in relation to control on 9th day after sowing ([4]; 0.01 μM): 200%
Percent (%) root growth of seedlings in relation to control on 9th day after sowing ([4]; 0.01 μM): 103%
Percent (%) shoot growth of seedlings in relation to control on 9th day after sowing ([4]; 0.01 μM): 196%
Percent (%) germination of seeds in relation to control on 9th day after sowing ([4]; 0.1 μM): 200%
Percent (%) root growth of seedlings in relation to control on 9th day after sowing ([4]; 0.1 μM): 104%
Percent (%) shoot growth of seedlings in relation to control on 9th day after sowing ([4]; 0.1 μM): 183%
Seed Ger. ([5]; 0.001 μM): 3
Root Growth (mm) 3rd Day ([5]; 0.001 μM): 21.5 mm
Shoot growth 3rd Day ([5]; 0.001 μM): 47.6
Root Growth (mm) 6th Day ([5]; 0.001 μM): 22.8 mm
Shoot growth 6th Day ([5]; 0.001 μM): 76.3
Root Growth (mm) 9th Day ([5]; 0.001 μM): 25.0 mm
Shoot growth 9th Day ([5]; 0.001 μM): 85.8
Seed Ger. ([5]; 0.01 μM): 3
Root Growth (mm) 3rd Day ([5]; 0.01 μM): 15.8 mm
Shoot growth 3rd Day ([5]; 0.01 μM): 39.6
Root Growth (mm) 6th Day ([5]; 0.01 μM): 16.6 mm
Shoot growth 6th Day ([5]; 0.01 μM): 76.5
Root Growth (mm) 9th Day ([5]; 0.01 μM): 16.6 mm
Shoot growth 9th Day ([5]; 0.01 μM): 76.5
Seed Ger. ([5]; 0.1 μM): 2
Root Growth (mm) 3rd Day ([5]; 0.1 μM): 15.3 mm
Shoot growth 3rd Day ([5]; 0.1 μM): 46.8
Root Growth (mm) 6th Day ([5]; 0.1 μM): 29.3 mm
Shoot growth 6th Day ([5]; 0.1 μM): 76.6
Root Growth (mm) 9th Day ([5]; 0.1 μM): 32.0 mm
Shoot growth 9th Day ([5]; 0.1 μM): 81.6
Seed Ger. ([6]; 0.001 μM): 1
Root Growth (mm) 3rd Day ([6]; 0.001 μM): 35.5 mm
Shoot growth 3rd Day ([6]; 0.001 μM): 31.0
Root Growth (mm) 6th Day ([6]; 0.001 μM): 34.0 mm
Shoot growth 6th Day ([6]; 0.001 μM): 85.6
Root Growth (mm) 9th Day ([6]; 0.001 μM): 40.0 mm
Shoot growth 9th Day ([6]; 0.001 μM): 103.6
Seed Ger. ([6]; 0.01 μM): 2
Root Growth (mm) 3rd Day ([6]; 0.01 μM): 23.5 mm
Shoot growth 3rd Day ([6]; 0.01 μM): 27.0
Root Growth (mm) 6th Day ([6]; 0.01 μM): 25.5 mm
Shoot growth 6th Day ([6]; 0.01 μM): 66.8
Root Growth (mm) 9th Day ([6]; 0.01 μM): 27.8 mm
Shoot growth 9th Day ([6]; 0.01 μM): 67.0
Seed Ger. ([6]; 0.1 μM): 1
Root Growth (mm) 3rd Day ([6]; 0.1 μM): 16.5 mm
Shoot growth 3rd Day ([6]; 0.1 μM): 32.5
Root Growth (mm) 6th Day ([6]; 0.1 μM): 16.6 mm
Shoot growth 6th Day ([6]; 0.1 μM): 42.3
Root Growth (mm) 9th Day ([6]; 0.1 μM): 26.6 mm
Shoot growth 9th Day ([6]; 0.1 μM): 61.3
